Values of other authors in publication PMC2831206 (Journal of medicinal chemistry, 2010).

Assays:
PDE9A = conditions: read-out: IC50 with PDE9A
learning and memory = conditions: rodents

Row | SMILES | IC50 (PDE9A) | effect on learning and memory (learning and memory)
1 | CC(C)Cn1c(=O)n(C)c(=O)c2nc[nH]c21 [IBMX, 3-isobutyl-1-methylxanthine] | > 200 µM | –
2 | C[C@H](Cc1nc2c(cnn2-c2ccccc2Cl)c(=O)[nH]1)C(F)(F)F [compound 1, 1-(2-chlorophenyl)-6-(3,3,3-trifluoro-2-methylpropyl)-1H-pyrazolo[3,4-d]pyrimidine-4(5H)-one] | – | ability to improve learning and memory in rodents
